Assay [1] deals with inositol triphosphate (IP3) levels, downstream signaling of ADGRL1, C2C12 skeletal cell line. Briefly: Mouse inositol triphosphate (IP3) ELISA in C2C12 cell lysates. The format is cell-based. Particulars: TCAP-1 100 nM, after 15 minutes, p<0.0001. How it is done:
(§1) Immortalized murine skeletal cell line C2C12 cells were used for all in vitro studies. Cells were maintained at 60-70% confluency with Dulbecco’s Modified Eagle Medium (DMEM) supplemented with 20% fetal bovine serum (FBS) and penicillin/streptomycin antibiotic combination. To induce differentiation, the media was changed to DMEM supplemented with 10% horse serum and penicillin/streptomycin antibiotic combination, and cells were allowed to differentiate for 6 days (media replaced every 24 h). For treatment, cells were serum starved for 3 h and then treated with either vehicle (ddH20) or TCAP-1 (100 nM).
(§2) The protocols provided by commercial DAG and IP3 assays (MyBiosource, San Diego, California USA). Briefly, immortalized mouse C2C12 cells were prepared using the TCAP-treatment protocol described previously. Cells were added to a microELISA plate coated with purified mouse DAG or IP3 antibodies, respectively. Subsequently, 3,3′,5,5′-tetramethylbenzidine (TMB) solution was added to detect the HRP-conjugates as the colour changes. Finally, a sulphuric acid solution was added to terminate the reaction. The absorbance change was measured at a wavelength of 450 nm using a spectrophotometer (SpectraMax Plus).
On the technique in general: In an ELISA, binding on a coated surface is turned into a signal by an enzyme label.

The test system of assay [2] is diacylglycerol (DAG) levels, downstream signaling of ADGRL1, C2C12 skeletal cell line. Briefly: Mouse diacylglycerol (DAG) ELISA in C2C12 cell lysates. Particulars: TCAP-1 100 nM, after 60 minutes, p<0.0001. The format is cell-based. How it is done:
as §1, §2

A further assay deals with C2C12 myotubes. The assay can be described thus: Calcium imaging in live C2C12 cells (fluo-4). The format is cell-based, mouse. The settings on record: caffeine 4 mM, TCAP-1 100 nM pre-treatment for 1 hour. How it is done: For live-cell fluorescence experiments, immortalized murine C2C12 skeletal muscle cells were grown and fully differentiated on Poly-D-lysine coated 25 mm round No. 1 glass coverslips (Warner Instruments, Hamden, CT, USA). Cells were grown in Dulbecco’s Modified Eagle Medium (DMEM) supplemented with 20% fetal bovine serum (FBS), 100 U/ml penicillin and 100 µg/ml streptomycin (Invitrogen, Burlington, ON, Canada), and stimulated differentiation with DMEM supplemented with 10% horse serum (HS), 100 U/ml penicillin and 100 µg/ml streptomycin (Invitrogen, Burlington, ON, Canada. Changes in intracellular calcium were assessed using the membrane-permeable calcium sensitive fluorescent indicator fluo-4, AM (Invitrogen, Burlington, ON, Canada). Cells were loaded with fluo-4 by incubating a single coverslip in DMEM containing 10 µM fluo-4 (from a 1 mM stock solution in DMSO) for 30 min (37° C.) followed by a 15 min wash in Locke’s Buffer containing (in mM): 154 mM NaCl, 4 mM NaHCOs, 5 mM KCI, 2.3 mM CaCl2, 1 mM MgCl2, 5 mM glucose and 10 mM Hepes (pH 7.4); osmolarity 305-310 mOsmol at 22° C. During loading, the acetate groups on fluo-4 are removed by intracellular esterases reducing dye leakage. In experiments assessing changes in intracellular calcium, coverslips were placed in a flow-through bath chamber (RC-40HP, Warner Instruments, Hamden, CT, USA) of an inverted microscope (Axio Observer Z1, Zeiss, Toronto, ON, Canada) equipped with a 40× oil immersion objective. Cells were continuously bulk perfused with Locke’s buffer via a gravity drip perfusion system at a rate of 2-3 ml min-1 and experiments were conducted at a room temperature (RT) of 22° C. Changes in fluo-4 fluorescence was imaged using a green fluorescent protein (GFP) filter set (Semrock, Rochester, NY, USA) and a X-Cite 120 fluorescence illumination system (Excelitas Technologies, Mississauga, ON, Canada), controlled by Volocity 4.0 imaging software (Quorum Technologies Inc., Guelph, ON, Canada). Fluorescence emissions were detected with an Orca-ER Hamamatsu B/W CCD digital camera (Hamamatsu, Middlesex, NJ, USA). Fluo-4 was excited with a wavelength of 480 nm for 100 ms every 5 sec and fluorescence emission was measured at wavelength of 516 nm. Caffeine (4 mM; Sigma Aldrich, Oakville, ON) was applied to C2C12 myotubes to stimulate calcium release from the sarcoplasmic reticulum. Cells were either pre-treated with TCAP-1 (100 nM) for 1 hour before stimulation with caffeine. Using velocity 4.0 imaging software, multiple regions of interests (ROIs) were taken from each coverslip to be analysed.

For a further assay, the system named is tibialis anterior muscle. Briefly: Electrical muscle stimulation, 6-minute fatigue protocol. The format is in vivo, Sprague-Dawley rats. Here is the method:
Male adult Sprague-Dawley rats (-350 g) were used for the muscle function studies. Male adult Wistar rats (-250 g) were used for the functional positron emission tomography tests. Electrical muscle stimulation protocol was followed as described by Holwerda and Locke (2014) with minor modifications. Briefly, sixteen male adult Sprague-Dawley rats ([…]) were allowed to acclimate for 1 week on a 12:12 LD cycle. For 5 days daily, half of the rats (n=8) were treated with physiological saline control, and the other half (n=8) was treated with mouse-TCAP-1 (10 nmoles/kg) by subcutaneous injection in the interscapular region. Three days from the last treatment, animals were anesthetized with 5% isofluorane in 1 L/min O2, and subsequently positioned into testing apparatus. A 25 g needle was inserted through the soft tissue of the knee in order to ensure a stable position. The foot was placed on the lever attached to a servomotor and taped in position. Electrodes were placed below the skin but adjacent to the tibialis anterior (TA) muscle. The correct voltages for peak tetanic tension was established by increasing voltage by 1 volt increments. The test began with a single tetanus and single twitch protocol to establish baseline. The 6-min fatigue protocol (8 V, 200 Hz, 300 ms) was started. Immediately following the termination of the protocol, tetanic and twitch tensions were recorded at 0, 1, and 5 mins. Animals were immediately sacrificed after recovery measurements were recorded.

[3] abbreviates: 10 nmoles/kg s.c. for 5 days, baseline.

Where no end group is shown, it is not given here.

Turning to “TCAP-1: 41-mer peptide from the C-terminal of teneurin-1, synthesized amidated, suspended in 0.9% saline for subcutaneous injection (QQLLGTGRVQGYDGYFVLSVEQYLELSDSANNIHFMRQSEI-NH2)”, in assay [1], the IP3 levels entry is “significantly reduced”. Besides, the “DAG levels compared to vehicle treatment” value in assay [2] is recorded as “significantly decreased”. Further, in the assay with C2C12 myotubes (compared with caffeine alone), the “peak in cytosolic calcium on caffeine application (fluo-4 fluorescence)” value was “significantly lower peak”. The “decline of cytosolic calcium after the caffeine peak” value in the assay with C2C12 myotubes (over 5 minutes) is recorded as “significantly faster decline”. Also, in the assay with tibialis anterior muscle (10 nmoles/kg s.c. for 5 days), the “fatigue response curve vs vehicle” value was “responded comparably” and the “tetanic force production throughout fatigue or recovery vs vehicle” value was “responded comparably”. Further, in the assay with tibialis anterior muscle (10 nmoles/kg s.c. for 5 days, after 6-minute fatigue protocol), the “force generated in recovery after fatigue protocol” value is recorded as “increased”. In addition, in the assay on tibialis anterior muscle (setting [3]), the “contraction relaxation rate at baseline vs vehicle” value is on record as “increased” and the “contraction velocity at baseline vs vehicle” value was “significantly slower”. In addition, the “half relaxation time (1/2RT) over fatigue protocol” value with tibialis anterior muscle (10 nmoles/kg s.c. for 5 days, compared to vehicle, p<0.05) is “sustained”. The “muscle mass vs vehicle” value in the assay on tibialis anterior muscle (10 nmoles/kg s.c. for 5 days, extracted muscles) is listed as “no difference”. The “twitch peak force at pre-test (baseline) vs vehicle” value in the assay on tibialis anterior muscle (10 nmoles/kg s.c. for 5 days, tested 3 days after last injection, p<0.05) is “significantly higher”. The “rate of the contractions (max dx/dt) over fatigue protocol” value in the assay on tibialis anterior muscle (10 nmoles/kg s.c. for 5 days, vehicle group steadily declined, p<0.05) was “maintained throughout the protocol”. For the same substance, the “fiber size vs vehicle” value in the assay on tibialis anterior muscle (data not shown) is “no difference”.

(Values after patent publication US20230256050A1, “COMPOSITIONS, METHODS AND USES COMPRISING TENEURIN C-TERMINAL ASSOCIATED PEPTIDE -1 (TCAP-1) FOR ENHANCING MUSCLE PERFORMANCE” (priority 2016, published 2023).)
